Data: patent publication US6344456B1, “Piperazinone derivatives and their uses” (Laboratoire L. Lafon, priority 1998, dated 2002)

What was measured:
Guinea Pig Platelets = assay: In vitro inhibition of collagen-induced platelet aggregation, guinea pig platelet-rich plasma; format: cell-based; conditions: Cavia porcellus, Platelet, 0.05 h; guinea pig PRP, collagen 1 μg/ml, 3 minutes of contact at 37° C.
Description: (§1) A study of the inhibitory activity of the compounds of formula I on platelet aggregation was carried out in vitro, i.e. by direct contact of solutions of variable concentrations of the compounds with platelets freshly separated from a sample of whole blood, taken under standardized conditions, from laboratory animals (guinea pigs) and from healthy human subjects who have not received any substances or drugs that might interfere with blood clotting. The anti-platelet-aggregating activity was also studied ex vivo/vitro, i.e. after administration of the substances claimed in guinea pigs to measure the intensity and duration of the anti-aggregating action induced by the fraction of the test product absorbed and circulating in the blood.
1.1. Studies on Guinea Pig Platelets
Blood is taken by intracardiac puncture from male Dunkin-Hartley guinea pigs (weighing about 330 g), at a rate of 4.5 ml per 0.5 ml of trisodium citrate (concentration of the aqueous solution: 1.55%) in order to prevent all trace of clotting. The platelet-rich plasma (PRP) is obtained by centrifuging the tubes of whole blood for 15 minutes at 150 g.
The PRPs are collected as. “pools”. The platelets contained in these pools are counted using a Coulter ZM haematology automatic device: if necessary, a dilution is carried out in order for the platelet concentration in the plasma to be between 200,000 and 400,000 platelets/mm^3. Simultaneously, other samples of these pools serve to prepare the platelet-poor plasma (PPP) by centrifugation at 1,500 g for 15 minutes.
The kinetic study of the platelet aggregation is carried out by adding a collagen solution (1 μg/ml) to a volume of PRP, using a Chrono-log Corporation aggregometer (490-D1 or 560 VS) which uses an optical detection of the appearance of the thrombus.
The measurements of the aggregation inhibition are carried out after 3 minutes of contact at 37° C. with agitation.

Human Platelets = assay: In vitro inhibition of collagen-induced platelet aggregation, human platelet-rich plasma; format: cell-based; conditions: Platelet, 0.05 h; human PRP, collagen 5 μg/ml, 3 minutes of contact at 37° C.; read-out: IC50 (M) in vitro Man
Description: A study of the inhibitory activity of the compounds of formula I on platelet aggregation was carried out in vitro, i.e. by direct contact of solutions of variable concentrations of the compounds with platelets freshly separated from a sample of whole blood, taken under standardized conditions, from laboratory animals (guinea pigs) and from healthy human subjects who have not received any substances or drugs that might interfere with blood clotting. The anti-platelet-aggregating activity was also studied ex vivo/vitro, i.e. after administration of the substances claimed in guinea pigs to measure the intensity and duration of the anti-aggregating action induced by the fraction of the test product absorbed and circulating in the blood. 1.2 Study on Human Platelets Venous blood is taken from a group of ten healthy human subjects of the same age, by puncture into a vein of the fold of the elbow and is collected in a glass tube containing aqueous 0.129 M sodium citrate solution (1 volume of citrate solution per 9 volumes of blood). Each tube is then centrifuged a first time at 20° C. and 100 g for 15 minutes in order to obtain the platelet-rich plasma (PRP); after removing this PRP, the tube is again centrifuged at 2,000 g for 15 minutes in order this time to remove the platelet-poor plasma (PPP). For each identified sample of PRP, the platelets are counted using a Coulter ZM counter. […] A control test intended to check the possible effect of the solvents (reference value) on the platelet aggregation is introduced into each measurement series, and is measured after 3 minutes of contact at 37° C. with agitation.

[1] = test system: platelet aggregation induced by collagen; assay: Ex vivo/vitro anti-platelet-aggregating activity in guinea pigs after gastric administration; parameters: species or system guinea pig; conditions: for % of g.r. inhibition guinea pig ex vivo d = 150 mg/kg −1 h: administered 1 h before blood is taken; for % of g.r. inhibition guinea pig ex vivo d = 150 mg/kg −2 h: administered 2 h before blood is taken
Description: as §1
2. ex vivo/vitro Pharmacological Study in Guinea Pigs
Evaluation of the anti-platelet-aggregating activity of the compounds is carried out in the same guinea pigs as those mentioned above (Dunkin-Hartley strain). The administration of each product in a range of doses from 150 mg/kg to 10 mg/kg and of each vehicle (5 ml/kg) is carried out via the gastric route (g.r.) 1h or 2h or 4h or 6h or 8h or 12h before blood is taken from the guinea pigs fasted the day before. The allocation of the treatments to the animals is random.
The blood is taken and then treated under the same conditions as those described above for the in vitro studies.
The results of the inhibition of the platelet aggregation obtained for each test concentration make it possible to calculate the IC50 concentration of each test product and the kinetics of the inhibitory effect and its duration of action.

Cl.N=C(N)c1ccc(N2CCN(CC(=O)NCCC(=O)O)C(=O)C2)cc1 [Example 17, 3-{[2-(4-{4-[amino(imino)methyl]phenyl}-2-oxopiperazino)acetyl]amino}propanoic acid hydrochloride]
IC50 (Guinea Pig Platelets): 4800 nM
IC50 (Human Platelets): 5.2e-06 M
% of g.r. inhibition guinea pig ex vivo d = 150 mg/kg −1 h [1]: −43%
% of g.r. inhibition guinea pig ex vivo d = 150 mg/kg −2 h [1]: −38%

Cl.N=C(N)c1ccc(N2CCN(CC(=O)NC(CC(=O)O)c3ccc4c(c3)OCO4)C(=O)C2)cc1 (stereo not shown) [Example 19, 3-{[2-(4-{4-[amino(imino)methyl]phenyl}-2-oxopiperazino)acetyl]amino}-3-(1,3-benzodioxol-5-yl)propanoic acid hydrochloride]
IC50 (Guinea Pig Platelets): 150 nM
IC50 (Human Platelets): 3.4e-07 M
anti-aggregating action ex-vivo in guinea pigs, oral dose 10 mg/kg, 1h ([1]; 10 mg/kg, administered 1h before the aggregation test): 57%
anti-aggregating action ex-vivo in guinea pigs, oral dose 10 mg/kg, 2h ([1]; 10 mg/kg, administered 2h before the aggregation test): 24%
% of g.r. inhibition guinea pig ex vivo d = 150 mg/kg −1 h [1]: −69%
% of g.r. inhibition guinea pig ex vivo d = 150 mg/kg −2 h [1]: −78%
